Data reported in patent US12054752B2, “HLA-A2 subtype-specific PLK1-derived epitope inducing antigen-specific t cell immune response to PLK1 protein” (THE CATHOLIC UNIVERSITY OF KOREA INDUSTRY-ACADEMIC …, priority 2017, dated 2024).

How the values were obtained:
[1] = system: T2 cell lines expressing HLA-A2 molecules; test: IFN-γ EliSpot of spleen CD8+T cells from mice electroporated with multi-epitope PLK1 recombinant DNA, against T2 cells sensitized with each epitope peptide; assay type: cell-based, HLA-A2 transgenic mice; conditions: CD8+T cells of spleens after electroporation with PLKWT / PLKOPT recombinant DNA 3 times at 7-day intervals, FIGS. 2A and 2B
From the text: FIGS. 2A and 2B illustrate the EliSpot results confirming immune responses occurring in the spleen after HLA-A2 transgenic mice are subjected to electroporation with a recombinant DNA (FIG. 2A) including multiple wild-type PLK1 epitopes and a recombinant DNA (FIG. 2B) including multiple PLK1 epitopes optimized for recombination.
In order to use a DNA-based vaccination strategy inducing multi-epitope-specific T cell immune responses, an amino acid sequence of the predicted PLK1-derived HLA-A2 multi-epitope was linked to a furin-sensitive linker (SGSG) amino acid sensitive to a proteolytic enzyme of the Golgi apparatus and cloned into a pCI expression vector (see FIG. 1).
Recombinant DNA, PLKWT and PLKOPT were transfected into HLA-A2 transgenic mice and biological electric shock therapy was performed at 95 V (4×65 ms pulses with repoling) using an Electro square wave electroporation device (ECM830; BTX; San Diego, CA). After the biological electric shock therapy was performed 3 times at 7-day intervals, CD8+T cells of mouse spleens were isolated. IFN-γ EliSpot was performed by sensitizing T2 cell lines expressing HLA-A2 molecules with each predicted epitope peptide and using T2 cell lines as a target cell.

[2] = system: CD8+T cells; test: Flow cytometry of spleen CD8+T cells expressing IFN-γ and CD107a/b after dendritic cell vaccination and peptide-based TriVax vaccination; assay type: in vivo, HLA-A2 transgenic mice; conditions: spleen T cells cultured with PLK1 antigen; compared to the groups using PLK1477 and PLK1541 antigen-peptides; FIG. 3
From the text: FIG. 3 illustrates flow cytometry analysis results confirming CD8+T cell immune responses of PLK1123 (SDFVFVVLEL, SEQ ID NO: 1), PLK1477 (TLLKYFRNYM, SEQ ID NO: 2), and PLK1541/21 (LILCPLMAAV, SEQ ID NO: 3) among PLK-1-derived epitope candidates specific for HLA-A2 with CD107a/b.
Next, HLA-A2-binding PLK1123 (SDFVFVVLEL, SEQ ID NO: 1), PLK1477 (TLLKYFRNYM, SEQ ID NO: 2), and PLK1541 (LILCPLMAAV, SEQ ID NO: 3) peptides confirmed as dominant epitopes were selected in a multi-epitope DNA-based vaccination experiment in the HLA-A2 transgenic mice, and immunized into the HLA-As transgenic mice by a dendritic cell vaccination and peptide-based TriVax vaccination (CD40 antibody/Poly-IC/epitope) strategy. After an immune response to each epitope-peptide was induced through this, T cells of the spleens were obtained and each cultured with a PLK1 antigen, and then CD8+T cells expressing IFN-γ and CD107a/b were confirmed using flow cytometry.

[3] = system: T2 cell lines and HLA-A2 positive tumor cells; test: IFN-γ EliSpot of CD8+T cells from peptide-immunized mice against peptide-sensitized T2 cells and tumor cells; assay type: in vivo, HLA-A2 transgenic mice; conditions: targets CCRF-SB, THP-1, SKM-1, SK-MEL-5 (HLA-A2 positive), HL-60 and SK-MEL-3 (HLA-A2 negative), FIG. 4A to 4C
From the text: FIG. 4A to 4C illustrate the EliSpot results confirming immune responses occurring by immunization of HLA-A2 transgenic mice with PLK1123 (SDFVFVVLEL, SEQ ID NO: 1)(FIG. 4A), PLK1477 (TLLKYFRNYM, SEQ ID NO: 2)(FIG. 4B), and PLK1541/21 (LILCPLMAAV, SEQ ID NO: 3)(FIG. 4C) among PLK1-derived epitope candidates specific for HLA-2 by a dendritic cell vaccination and peptide-based vaccination strategy.
In order to examine CD8+T cell immune responses, an immune response occurring in the spleen was confirmed by immunization into HLA-A2 transgenic mice by a dendritic cell vaccination and peptide-based vaccination strategy. For this purpose, HLA-A2-binding PLK1123 ([…], SEQ ID NO: 1), PLK1477 (TLLKYFRNYM, SEQ ID NO: 2), and PLK1541 (LILCPLMAAV, SEQ ID NO: 3) peptides confirmed as dominant epitopes were selected in a multi-epitope DNA-based vaccination experiment in the HLA-A2 transgenic mice, and immunized into the HLA-As transgenic mice by a dendritic cell vaccination and peptide-based TriVax vaccination (CD40 antibody/Poly-IC/epitope) strategy. After an immune response to each epitope-peptide was induced through this, CD8+T cells were obtained by antibody-binding magnetic cell sorting, and used as effector cells for confirming an antigen-specific T cell response. […]

Row | Sequence | ability to produce IFN-γ by the activation of CD8+T cells for T2 cell lines sensitized with each epitope peptide [1] | rate of antigen-specific CD8+T cells (IFN-γ and CD107a/b) [2] | CD8+T cell responses specific for T2 cell lines and HLA-A2 positive tumor cells sensitized with PLK1-derived antigen-peptides [3]
1 | ILCPLMAAV (Human Polo-like kinase-1) [PLK1542] | high levels | – | –
2 | SDFVFVVLEL (Human Polo-like kinase-1) [PLK1123] | high levels | relatively high rate | observed
3 | TLLKYFRNYM (Human Polo-like kinase-1) [PLK1477] | high levels | – | –
4 | LILCPLMAAV (Human Polo-like kinase-1) [PLK1541 21] | high levels | – | –
